Measurements from paper PMC8746528, “Novel Substituted Purine Isosteres: Synthesis, Structure-Activity Relationships and Cytotoxic Activity Evaluation” (Molecules, 2021).

How the values were obtained:
[1] = test system: a variety of cancer cell lines; parameters: method as in PMID 27720292; conditions: cited from earlier work
PC-3 cells [2] = experiment: Annexin V-7AAD apoptosis assay; assay type: cell-based, human; conditions: PC-3, 72 h, compound at its IC50, AnnexinV-7AAD staining; vehicle 3.5%
Protocol: (§1) For cell cycle analysis, cell culture supernatants and attached cells were collected, centrifuged, washed in PBS, fixed in 50% ethanol and stained with an RNase-containing propidium iodide solution (50 μg/mL) (all reagents from Sigma). For cell apoptosis assay, cells were harvested and stained with Annexin V binding buffer, Annexin V–FITC and 7-AAD (Annexin V-FITC Apoptosis Detection Kit, BD Systems). DNA content was analyzed on a BD Accuri C6 Flow Cytometer using the BD CSampler software (BD Biosciences, USA). Non-apoptotic events were used to calculate the percentage of cells distributed in each phase. A p value < 0.05 was considered to be statistically significant (Student’s t-test).

[3] = test system: normal human fibroblasts (WI-38); experiment: MTT cytotoxicity towards normal fibroblasts; assay type: cell-based; conditions: for Selectivity Index HCT116: SI = IC50 non cancer cell (WI-38)/IC50 cancer cell (HCT116); for Selectivity Index PC-3: SI = IC50 non cancer cell (WI-38)/IC50 cancer cell (PC-3); for cytotoxicity to normal cells in words / IC50: WI-38; for IC50: MTT, normal human fibroblasts
Protocol: (§2) The human HCT116 colon cancer cell line and PC-3 prostate cancer cell line were obtained from the American Type Cell Culture (ATCC, Bethesda, Md). Both cell lines were grown in 75 cm^2 culture flasks at 37 °C in 5% CO2 using Roswell Park Memorial Institute 1640 medium (RPMI 1640, Gibco) and Dulbecco’s modified Eagle’s medium F/12 (DMEM/F-12, Gibco), respectively, containing 10% fetal bovine serum (FBS, Gibco). To test the inhibitory activities of compounds using a cell-based assay, MTT assay was performed for cell viability, as described previously. Briefly, HCT116 cells were plated at a density of 1500 per well, while PC-3 cells were plated at a density of 750 per well in a 96-well plate. After 24 h, cells were treated with the indicated compounds in a dose-dependent manner for 72 h and 96 h (all tested compounds provided clear solutions). MTT [3-(4,5-dimethylthiazol-2-yl)-2,5-diphenyltetrazolium bromide] (Sigma M-5655) was added at a final concentration of 0.5 mg/mL directly to each well for 4 h at 37 °C. The medium was aspirated, and the blue MTT formazan precipitate was dissolved in dimethyl sulfoxide (DMSO). Absorbance was determined in a Powerwave microplate spectrophotometer (Biotek Instruments, Inc.) at 540 nm. Viable cell numbers were determined by tetrazolium conversion to its formazan dye. The IC50 was calculated by Microsoft Excel equation and confirmed by GraphPad Prism (7.0). Each experiment was performed in triplicate and mean values ± SD are reported.
Figure 1 Dose-response curves for the administration of 14b, 26b, 35b on HCT116, PC-3 and WI-38 cells, as assessed by the MTT assay. Results are expressed as a percentage of controls. Statistical analysis was performed in triplicate determination at p < 0.05.

[4] = test system: HCT116 colon cancer cell line; experiment: MTT cell viability assay, HCT116; assay type: cell-based; conditions: Homo sapiens, HCT-116, treatment 72 h and 96 h, mean ± SD of three experiments
Protocol: as §2

[5] = test system: PC-3 prostate cancer cell line; experiment: MTT cell viability assay, PC-3; assay type: cell-based; conditions: Homo sapiens, treatment 72 h and 96 h, mean ± SD of three experiments
Protocol: as §2

PC-3 cells [6] = experiment: DNA staining (propidium iodide) and flow cytometric cell cycle analysis; assay type: cell-based, human; conditions: PC-3, 72 h; for Cell cycle phase distribution G0/G1 / Cell cycle phase distribution G2/M / Cell cycle phase distribution S: compound at its IC50
Protocol: as §1

| SMILES | IC50 values [1] | apoptotic nuclei (PC-3 cells [2]) | Selectivity Index HCT116 [3] | Selectivity Index PC-3 [3] | cytotoxicity to normal cells in words [3] | IC50 [3] | selectivity index ([3]; normal cell line WI-38 vs both cancer cell lines) | IC50 [4] | melting point | IC50 [5] | cell-cycle perturbation in words (PC-3 cells [6]) | Cell cycle phase distribution G0/G1 (PC-3 cells [6]) | Cell cycle phase distribution G2/M (PC-3 cells [6]) | Cell cycle phase distribution S (PC-3 cells [6]) |
| --- | --- | --- | --- | --- | --- | --- | --- | --- | --- | --- | --- | --- | --- | --- |
| COc1cc(Nc2nccc3c(-c4ccccc4)n[nH]c23)cc(OC)c1OC [3-phenyl-7-(3,4,5-trimethoxyphenyl)aminopyrazolo[3,4-c]pyridine] | medium to high nM range |  |  |  |  |  |  |  |  |  |  |  |  |  |
| Fc1cccc(-c2c[nH]c3c(Nc4ccccc4)nccc23)c1 [14b, 3-(3-Fluorophenyl)-Ν-phenyl-1H-pyrrolo[2,3-c]pyridin-7-amine] |  | 26.5% | 222 | 363 | practically non-toxic against the normal cell line | 20000 ± 400 nM | higher than 200 | 90 ± 10 nM | 168 to 169 °C | 55 ± 15 nM | statistically significant accumulation of PC-3 cells at G2/M phase | 48.7 (±0.6) % | 30.8 (±0.8) % | 20.5 (±1.4) % |
| Fc1cccc(-c2c[nH]c3c(Nc4ccccc4)ncnc23)c1 [26b, 7-(3-Fluorophenyl)-Ν-phenyl-5H-pyrrolo[3,2-d]pyrimidin-4-amine] |  | 17.7% | 8.3 | 8.7 | non-cytotoxic to the normal cell line | 17000 ± 1500 nM |  | 2050 ± 50 nM | > 250 °C | 1950 ± 50 nM |  | 54.4 (±1.1) % | 24.9 (±1.6) % | 20.7 (±02.7) % |
| Fc1cccc(-c2n[nH]c3c(Nc4ccccc4)ncnc23)c1 [35b, 3-(3-Fluorophenyl)-Ν-phenyl-1H-pyrazolo[4,3-d]pyrimidin-7-amine] |  | 11.5% | 5.3 | 22.2 | non-cytotoxic to the normal cell line | 12200 ± 1000 nM |  | 2300 ± 200 nM | 237 to 238 °C | 550 ± 50 nM |  | 58.9 (±0.6) % | 24.9 (±2.4) % | 16.3 (±1.8) % |
